The pIC50 is the negative decadic logarithm of the IC50, by convention in mol/L. Low values mean a large IC50, high ones a small IC50.

SMILES strings stand for the structures. pIC50: −log10 of the molar value.

Consider 36 molecules from US12351570B2 (MERCK PATENT GMBH, priority 2018, dated 2025).

For this assay, the system named is MDA-MB-231 cells. Description: Extracellular lactate production inhibition after 4 h, MDA-MB-231. The note with it: Homo sapiens, MDA-MB-231.
Experimental: Extracellular Lactate Production Inhibition after 4 h
Cells were plated in growth media supplemented with 10% FBS, followed by overnight recovery at 37° C., 5% CO2. […] Plates were then moved for 4 h incubation at 37° C., 5% CO2 with subsequent 20 μl media transfer to empty 384-well transparent plates. […] Plates were short-spun and measured kinetically in absorbance mode (530 nm, 12 min measurement time with 2-minute intervals between subsequent readouts at 30° C.). Differences in the signal between T8 min and T0min were normalized to vehicle (cells w/ 0.25% DMSO) and quasi-positive (LCIS buffer w/ 0.25% DMSO) controls and plotted against logarithmically-transformed test compound concentrations with fitting the 4-parameter model in GraphPad Prism software.
In turn, `Cc1cc(C(=O)O)ncc1C#Cc1ccccc1NS(=O)(=O)c1ccc2ccccc2c1` [Compound 50, 4-methyl-5-{2-[2-(naphthalene-2-sulfonamido)phenyl]ethynyl}pyridine-2-carboxylic acid] had a pIC50 of 4.00 to 6.00.
`COc1ccc(S(=O)(=O)Nc2ccccc2C#Cc2ccc(C(=O)O)nc2)c(OC)c1` [Compound 299, 5-{2-[2-(2,4-dimethoxybenzenesulfon-amido)phenyl]ethynyl}pyridine-2-carboxylic acid] showed a pIC50 of 4.00 to 6.00.
`Cc1ccc2cccnc2c1S(=O)(=O)Nc1ccccc1C#Cc1cnc(C(=O)O)c(N(C)C)c1` [Compound 163, 3-(dimethylamino)-5-{2-[2-(7-methylquinoline-8-sulfonamido)-phenyl]ethynyl}pyridine-2-carboxylic acid] had a pIC50 of 6.00 to 7.00.
In turn, `O=C(O)c1ccc(C#Cc2ccccc2S(=O)(=O)Nc2ccccc2)cn1` [Compound 439, 5-{2-[2-(phenylsulfamoyl)phenyl]ethynyl} pyridine-2-carboxylic acid] gave a pIC50 of 4.00 to 6.00.
The molecule `CNc1ccnc2c(S(=O)(=O)Nc3ccccc3C#Cc3cnc(C(=O)O)cc3C)cccc12` [Compound 425, 4-Methyl-5-[2-(4-methylamino-quinoline-8-sulfonylamino)-phenylethynyl]-pyridine-2-carboxylic acid] gave a negative-log IC50 (pIC50) of 4.00 to 6.00.
In turn, `C=C(C)c1cc(C(=O)O)ncc1C#Cc1ccccc1NS(=O)(=O)c1ccc(OC)c2cccnc12` [Compound 207] gave a pIC50 of 7.00 to 8.00.
As to `Cc1ccccc1-c1ccc(S(=O)(=O)Nc2ccccc2C#Cc2ccc(C(=O)O)nc2)cc1` [Compound 293, 5-[2-(2-{2′-methyl-[1,1′-biphenyl]-4-sulfonamido}phenyl)ethynyl]pyridine-2-carboxylic acid], the pIC50 is 6.00 to 7.00.
The molecule `O=C(O)c1ccc(C#Cc2ccc(C(F)(F)F)cc2NS(=O)(=O)c2ccc3ccccc3c2)cc1` [Compound 17, 4-{2-[2-(naphthalene-2-sulfonamido)-4-(trifluoromethyl)phenyl]ethynyl}benzoic acid] gave a pIC50 of 6.00 to 7.00.
In the case of `COC(=O)c1cc(C)c(C#Cc2ccccc2NS(=O)(=O)c2ccc(OC)c3cccnc23)cn1` [Compound 122, methyl 5-{2-[2-(5-methoxyquinoline-8-sulfonamido)phenyl]ethynyl}-4-methylpyridine-2-carboxylate], the pIC50 was 7.00 to 8.00.
Consider `O=C(O)c1ccc(C#Cc2cc(F)ccc2NS(=O)(=O)c2cccc3cccnc23)cn1` [Compound 111, 5-{2-[5-fluoro-2-(quinoline-8-sulfonamido)phenyl]ethynyl}pyridine-2-carboxylic acid], for which the pIC50 is 6.00 to 7.00.
On to `COC(=O)c1ccc(C#Cc2ccccc2NS(=O)(=O)c2ccc3c(c2)Cc2ccccc2-3)cn1` [Compound 132, methyl 5-{2-[2-(9H-fluorene-2-sulfonamido)phenyl]ethynyl}pyridine-2-carboxylate], for which the pIC50 was 7.00 to 8.00.
`COc1ccc(S(=O)(=O)Nc2ccccc2C#Cc2ccc(C(=O)O)nc2)c(C)c1C` [Compound 42, 5-{2-[2-(4-methoxy-2,3-dimethylbenzenesulfonamido)phenyl]-ethynyl}pyridine-2-carboxylic acid] showed a pIC50 of 6.00 to 7.00.
The molecule `COc1ccc(S(=O)(=O)Nc2ccccc2C#Cc2cnc(C(=O)O)c3ccccc23)c2ncccc12` [Compound 209, 4-{2-[2-(5-methoxyquinoline-8-sulfonamido)phenyl]ethynyl}isoquinoline-1-carboxylic acid] showed a pIC50 of 6.00 to 7.00.
Consider `Cc1cc(C#Cc2ccccc2NS(=O)(=O)c2ccc3ccccc3c2)cnc1C(=O)O` [Compound 49, 3-methyl-5-{2-[2-(naphthalene-2-sulfonamido)phenyl]ethynyl}pyridine-2-carboxylic acid], for which the pIC50 is 6.00 to 7.00.
Molecule `CN(c1ccccc1)S(=O)(=O)c1ccccc1C#Cc1ccc(C(=O)O)nc1` [Compound 440, 5-(2-{2-[methyl(phenyl)sulfamoyl]phenyl}-ethynyl)pyridine-2-carboxylic acid] gave a pIC50 of 4.00 to 6.00.
`Cc1cc(C#Cc2cc(F)ccc2NS(=O)(=O)c2ccc3c(c2)oc2ccccc23)cnc1C(=O)O` [Compound 309, 5-[2-(5-fluoro-2-{8-oxatricyclo[7.4.0.0^2,7]trideca-1(9),2(7),3,5,10,12-hexaene-5-sulfonamido}phenyl)ethynyl]-3-methylpyridine-2-carboxylic acid] showed a negative logarithm of the IC50 (pIC50) of 6.00 to 7.00.
The molecule `CCOc1ccc(S(=O)(=O)Nc2ccccc2C#Cc2cnc(C(=O)O)c3ccccc23)c2ncccc12` [Compound 442, 4-{2-[2-(5-ethoxyquinoline-8-sulfonamido)phenyl]ethynyl}iso-quinoline-1-carboxylic acid] showed a pIC50 of 7.00 to 8.00.
For `O=C(O)c1ccc(C#Cc2ccccc2NS(=O)(=O)c2ccc3c(c2)Cc2ccccc2-3)cn1` [Compound 92, 5-{2-[2-(9H-fluorene-2-sulfonamido)phenyl]ethynyl}pyridine-2-carboxylic acid] the value was 7.00 to 8.00; for `O=C(O)c1ccc(C#Cc2ccccc2NS(=O)(=O)c2cnc3ccccc3c2)cc1` [Compound 40, 4-{2-[2-(quinoline-3-sulfonamido)phenyl]ethynyl}benzoic acid], 4.00 to 6.00.
The molecule `Cc1cc(C#Cc2ccccc2N(C=O)Cc2ccc3ccccc3c2)cnc1C(=O)O` [Compound 195, 3-methyl-5-[2-(2-{N-[(naphthalen-2-yl)methyl]formamido}phenyl)ethynyl]-pyridine-2-carboxylic acid] gave a pIC50 of 6.00 to 7.00.
The molecule `CCCOC(=O)c1ccc(C#Cc2ccccc2NS(=O)(=O)c2ccc(OC)c3cccnc23)cn1` [Compound 166, propyl 5-{2-[2-(5-methoxyquinoline-8-sulfonamido)phenyl]ethynyl}pyridine-2-carboxylate] had a pIC50 of 7.00 to 8.00.
In the case of `COc1ccc(NS(=O)(=O)c2c(C)ccc3cccnc23)c(C#Cc2ccc(C(=O)O)nc2)c1` [Compound 247, 5-{2-[5-methoxy-2-(7-methylquinoline-8-sulfonamido)phenyl]ethynyl}pyridine-2-carboxylic acid], the pIC50 is 7.00 to 8.00.
For `NCCOCCOCCOc1ccc(NS(=O)(=O)c2cccc3cccnc23)c(C#Cc2ccc(C(=O)O)nc2)c1` [Compound 333, 5-[5-{2-[2-(2-Amino-ethoxy)-ethoxy]-ethoxy}-2-(quinoline-8-sulfonylamino)-phenylethynyl]-pyridine-2-carboxylic acid] the value was 4.00 to 6.00; for `COC(=O)c1ccc(C#Cc2ccccc2N(Cc2ccc3ccccc3c2)C(N)=O)cn1` [Compound 140, methyl 5-[2-(2-{carbamoyl[(naphthalen-2-yl)methyl]amino}phenyl)ethynyl]pyridine-2-carboxylate], 6.00 to 7.00; for `O=C(O)c1ccc(C#Cc2ccccc2NS(=O)(=O)c2ccc3c(c2)Cc2ccccc2-3)cc1` [Compound 87, 4-{2-[2-(9H-fluorene-2-sulfonamido)phenyl]ethynyl}benzoic acid], 6.00 to 7.00.
As to `COc1ccc(S(=O)(=O)Nc2ccccc2C#Cc2ccc(C(N)=O)nc2)c2ncccc12` [Compound 154, 5-{2-[2-(5-methoxyquinoline-8-sulfonamido)phenyl]ethynyl}pyridine-2-carboxamide], the negative logarithm of the IC50 (pIC50) is 4.00 to 6.00.
In turn, `Cc1cnc2c(S(=O)(=O)Nc3ccccc3C#Cc3ccc(C(=O)O)nc3)cccc2c1` [Compound 262, 5-[2-(3-Methyl-quinoline-8-sulfonyl-amino)-phenylethynyl]-pyridine-2-carboxylic acid] had a pIC50 of 6.00 to 7.00.
Molecule `CNc1ccnc2c(S(=O)(=O)Nc3ccccc3C#Cc3cnc(C(=O)O)cc3OC)cccc12` [Compound 419, 4-Methoxy-5-[2-(4-methylamino-quinoline-8-sulfonylamino)-phenylethynyl]-pyridine-2-carboxylic acid] showed a pIC50 of 4.00 to 6.00.
As for `COCCOC(=O)c1cc(OC)c(C#Cc2ccccc2NS(=O)(=O)c2ccc(OC)c3cccnc23)cn1` [Compound 405, 2-methoxyethyl 4-methoxy-5-{2-[2-(5-methoxyquinoline-8-sulfonamido)phenyl]ethynyl}pyridine-2-carboxylate], the negative logarithm of the IC50 (pIC50) is 6.00 to 7.00.
Next, `Cc1ccc2cc(Cl)cc(S(=O)(=O)Nc3ccccc3C#Cc3ccc(C(=O)O)nc3)c2n1` [Compound 317, 5-{2-[2-(6-chloro-2-methylquinoline-8-sulfonamido)phenyl]ethynyl}pyridine-2-carboxylic acid]: 6.00 to 7.00; `CS(=O)(=O)N(Cc1ccc2ccccc2n1)c1ccccc1C#Cc1ccc(C(=O)O)nc1` [Compound 120, 5-[2-(2-{N-[(quinolin-2-yl)methyl]methanesulfonamido}phenyl)ethynyl]pyridine-2-carboxylic acid]: 4.00 to 6.00; `Cc1cc(S(=O)(=O)Nc2ccccc2C#Cc2ccc(C(=O)O)nc2)c2cc(C)ncc2c1` [Compound 288, 5-{2-[2-(3,7-dimethylisoquinoline-5-sulfonamido)phenyl]ethynyl}pyridine-2-carboxylic acid]: 4.00 to 6.00.
Take `COc1ccc(S(=O)(=O)N(C)c2ccccc2C#Cc2cnc(C(=O)O)cc2C)c2ncccc12` [Compound 123, 4-methyl-5-{2-[2-(N-methyl5-methoxyquinoline-8-sulfonamido)phenyl]ethynyl}pyridine-2-carboxylic acid]: the pIC50 was 4.00 to 6.00.
Molecule `O=C(O)c1ccc(C#Cc2ccccc2NS(=O)(=O)c2cc3cc(Cl)ccc3s2)cc1` [Compound 281, 4-{2-[2-(5-chloro-1-benzothiophene-2-sulfonamido)phenyl]ethynyl}benzoic acid] had a negative-log IC50 (pIC50) of 6.00 to 7.00.
`O=C(O)c1ccc(C#Cc2ccccc2NC(=O)N2CCCc3cccnc32)cn1` [Compound 151, 5-(2-{2-[(1,2,3,4-tetrahydro-1,8-naphthyridine-1-carbonyl)amino]phenyl}-ethynyl)pyridine-2-carboxylic acid] gave a pIC50 of 6.00 to 7.00.
For `COc1ccc(S(=O)(=O)Nc2c(C)cc(Cl)cc2C#Cc2ccc(C(=O)O)nc2)c2ncccc12` [Compound 346, 5-{2-[5-chloro-2-(5-methoxyquinoline-8-sulfonamido)-3-methylphenyl]-ethynyl}pyridine-2-carboxylic acid] the value was 6.00 to 7.00.
